The record followed here is patent publication US8389513B2, “2-amino-5,5-difluoro-5,6-dihydro-4H-[1,3]oxazin-4-yl)-phenyl]-amides” (Hoffmann-La Roche Inc., priority 2009, dated 2013).

The target of experiment [1] is T1, BACE2 (Rattus norvegicus, UniProt Q6IE75).
T1 construct: endogenous cellular BACE2 in the Ins1e rat cell line; endogenous in cells; host or cells: INS-TMEM27 (INS1e-derived rat cell line with TetOn-inducible full-length hTMEM27)
T1 sequence (Q6IE75 63-514): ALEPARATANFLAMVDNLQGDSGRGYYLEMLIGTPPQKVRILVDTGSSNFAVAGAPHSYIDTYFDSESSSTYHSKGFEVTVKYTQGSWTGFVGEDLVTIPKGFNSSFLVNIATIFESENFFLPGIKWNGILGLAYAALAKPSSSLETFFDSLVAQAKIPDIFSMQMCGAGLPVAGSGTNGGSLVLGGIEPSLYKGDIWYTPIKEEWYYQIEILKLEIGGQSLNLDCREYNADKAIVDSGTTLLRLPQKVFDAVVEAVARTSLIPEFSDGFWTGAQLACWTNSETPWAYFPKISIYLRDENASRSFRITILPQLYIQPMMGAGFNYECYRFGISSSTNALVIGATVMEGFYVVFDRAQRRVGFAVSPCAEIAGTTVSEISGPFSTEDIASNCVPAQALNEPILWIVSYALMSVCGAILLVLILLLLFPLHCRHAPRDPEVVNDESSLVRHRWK
In words: Assay for BACE inhibition by measuring cellular TMEM27 cleavage. Type of experiment: cell-based. To be noted: INS-TMEM27 cells (INS1e-derived); shed TMEM27 by ELISA; read-out: BACE2 cell act. IC50. The essentials:
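Ins1e-derived INS-TMEM27 rat cells with doxycycline-inducible full-length human TMEM27; inhibitor added 2 h before doxycycline (500 ng/ml final), then 46 h at 37 °C. Shed TMEM27 in supernatant quantified by sandwich ELISA with anti-human-TMEM27 antibodies; EC50 from curve fit across inhibitor concentrations.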
On the technique in general: ELISA stands for enzyme-linked immunosorbent assay.

The target of experiment [2] is T2, BACE1 (Homo sapiens, UniProt P56817).
T2 construct: Human HEK293 cells which are stably transfected with a vector expressing a cDNA of the human APP wt gene (APP695); endogenous in cells; host or cells: HEK293 stably transfected with human APP695 wt
In words: Cellular Aβ-lowering assay (Aβ40 ELISA). It counts as cell-based. The settings on record: HEK293 cells stably expressing human APP695; Aβ40 in culture supernatant; read-out: BACE1 cell act. Aβ40 IC50. The procedure, abridged:
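Aβ40 in supernatant measured by sandwich ELISA (TMB, 450 nm) and quantified against a pure Aβ peptide standard curve.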

T2 sequence (P56817 46-501): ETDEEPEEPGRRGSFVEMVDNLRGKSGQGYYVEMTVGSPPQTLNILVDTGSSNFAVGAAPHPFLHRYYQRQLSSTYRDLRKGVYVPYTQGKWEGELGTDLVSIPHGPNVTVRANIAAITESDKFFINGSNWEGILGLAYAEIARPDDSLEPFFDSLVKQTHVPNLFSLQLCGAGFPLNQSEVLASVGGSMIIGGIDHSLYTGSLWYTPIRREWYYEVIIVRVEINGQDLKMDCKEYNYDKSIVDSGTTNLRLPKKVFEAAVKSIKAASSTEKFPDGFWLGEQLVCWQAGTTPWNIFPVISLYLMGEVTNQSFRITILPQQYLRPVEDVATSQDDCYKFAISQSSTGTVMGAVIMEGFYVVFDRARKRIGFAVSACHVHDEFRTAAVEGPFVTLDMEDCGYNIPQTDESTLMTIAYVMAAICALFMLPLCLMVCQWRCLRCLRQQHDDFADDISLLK

One may read the IC50 as the concentration that inhibits the measured activity by half. Regarding `C[C@]1(c2cccc(NC(=O)c3ccc(C#N)cn3)c2)N=C(N)OCC1(F)F` [Example 53, 5-Cyano-pyridine-2-carboxylic acid [3-((R)-2-amino-5,5-difluoro-4-methyl-5,6-dihydro-4H-[1,3]oxazin-4-yl)-phenyl]-amide], the 50% inhibitory concentration (IC50) was determined as 349 nM in experiment [1] and 13 nM in experiment [2].
Turning to `C[C@]1(c2cc(NC(=O)c3ncccc3Cl)ccc2F)N=C(N)OCC1(F)F` [Example 3, 3-Chloro-pyridine-2-carboxylic acid [3-((R)-2-amino-5,5-difluoro-4-methyl-5,6-dihydro-4H-[1,3]oxazin-4-yl)-4-fluoro-phenyl]-amide], the 50% inhibitory concentration (IC50) in experiment [1] is 52 nM; in experiment [2], 87 nM.
Turning to `C[C@]1(c2cc(NC(=O)c3cnc(C(F)(F)F)cn3)ccc2F)N=C(N)OCC1(F)F` [Example 17, 5-Trifluoromethyl-pyrazine-2-carboxylic acid [3-((R)-2-amino-5,5-difluoro-4-methyl-5,6-dihydro-4H-[1,3]oxazin-4-yl)-4-fluoro-phenyl]-amide], the concentration for half-maximal inhibition (IC50) is 1220 nM in experiment [1] and 86 nM in experiment [2].
As to `Cc1cn[nH]c1C(=O)Nc1ccc(F)c([C@@]2(C)N=C(N)OCC2(F)F)c1` [Example 66, 4-Methyl-2H-pyrazole-3-carboxylic acid [3-((R)-2-amino-5,5-difluoro-4-methyl-5,6-dihydro-4H-[1,3]oxazin-4-yl)-4-fluoro-phenyl]-amide], the figures for the half-maximal inhibitory concentration (IC50) in experiment [1] and in experiment [2] were 465 nM and 622 nM, respectively.
Taken in the same sequence, the figures for `C[C@]1(c2cc(NC(=O)c3ccc(OCC(F)(F)C(F)(F)F)cn3)ccc2F)N=C(N)OCC1(F)F` [Example 44, 5-(2,2,3,3,3-Pentafluoro-propoxy)-pyridine-2-carboxylic acid [3-((R)-2-amino-5,5-difluoro-4-methyl-5,6-dihydro-4H-[1,3]oxazin-4-yl)-4-fluoro-phenyl]-amide] were 14500 nM and 290 nM.
Take `C[C@]1(c2cc(NC(=O)c3ccc(C#N)cn3)ccc2Cl)N=C(N)OCC1(F)F` [Example 51, 5-Cyano-pyridine-2-carboxylic acid [3-((R)-2-amino-5,5-difluoro-4-methyl-5,6-dihydro-4H-[1,3]oxazin-4-yl)-4-chloro-phenyl]-amide]: the 50% inhibitory concentration (IC50) in experiment [1] was found to be 327 nM; in experiment [2] it was 20 nM.
In the case of `CC1(C)OC(N)=N[C@](C)(c2cc(NC(=O)c3ncc(Cl)cc3F)ccc2F)C1(F)F` [Example 24, 5-Chloro-3-fluoro-pyridine-2-carboxylic acid [3-((R)-2-amino-5,5-difluoro-4,6,6-trimethyl-5,6-dihydro-4H-[1,3]oxazin-4-yl)-4-fluoro-phenyl]-amide], the values for the IC50 in experiment [1] and in experiment [2] were 70 nM and 12 nM, respectively.
`Cc1nc(C(=O)Nc2ccc(F)c([C@@]3(C)N=C(N)OCC3(F)F)c2)c(C)o1` [Example 59, 2,5-Dimethyl-oxazole-4-carboxylic acid [3-((R)-2-amino-5,5-difluoro-4-methyl-5,6-dihydro-4H-[1,3]oxazin-4-yl)-4-fluoro-phenyl]-amide]: the IC50 came to 97 nM in experiment [1] and 43 nM in experiment [2].
For `C[C@]1(c2cc(NC(=O)c3ncc(Cl)nc3Cl)ccc2F)N=C(N)OCC1(F)F` [Example 48, 3,5-Dichloro-pyrazine-2-carboxylic acid [3-((R)-2-amino-5,5-difluoro-4-methyl-5,6-dihydro-4H-[1,3]oxazin-4-yl)-4-fluoro-phenyl]-amide] the same measures were 6740 nM and 1130 nM.
On to `C[C@]1(c2cc(NC(=O)c3ncccc3C(F)(F)F)ccc2F)N=C(N)OCC1(F)F` [Example 6, 3-Trifluoromethyl-pyridine-2-carboxylic acid [3-((R)-2-amino-5,5-difluoro-4-methyl-5,6-dihydro-4H-[1,3]oxazin-4-yl)-4-fluoro-phenyl]-amide], for which the figures for the IC50 in experiment [1] and in experiment [2] were 330 nM and 180 nM, respectively.
Take `CC1(C)OC(N)=N[C@](C)(c2cc(NC(=O)c3ccc(Cl)nn3)ccc2F)C1(F)F` [Example 37, 6-Chloro-pyridazine-3-carboxylic acid [3-((R)-2-amino-5,5-difluoro-4,6,6-trimethyl-5,6-dihydro-4H-[1,3]oxazin-4-yl)-4-fluoro-phenyl]-amide]: the IC50 in experiment [1] was found to be 50700 nM; in experiment [2] it was 710 nM.
In the case of `C[C@]1(c2cc(NC(=O)c3ncccc3OCC(F)(F)F)ccc2F)N=C(N)OCC1(F)F` [Example 54, 3-(2,2,2-Trifluoro-ethoxy)-pyridine-2-carboxylic acid [3-((R)-2-amino-5,5-difluoro-4-methyl-5,6-dihydro-4H-[1,3]oxazin-4-yl)-4-fluoro-phenyl]-amide], the IC50 in experiment [1] came to 245 nM; in experiment [2], 635 nM.
`CC1(C)OC(N)=N[C@](C)(c2cc(NC(=O)c3ncc(Cl)cn3)ccc2F)C1(F)F` [Example 32, 5-Chloro-pyrimidine-2-carboxylic acid [3-((R)-2-amino-5,5-difluoro-4,6,6-trimethyl-5,6-dihydro-4H-[1,3]oxazin-4-yl)-4-fluoro-phenyl]-amide]: the results for the IC50 in experiment [1] and in experiment [2] were 20 nM and 16 nM, respectively.
Regarding `CC1(C)OC(N)=N[C@](C)(c2cc(NC(=O)c3ccc(OC(F)F)cn3)ccc2F)C1(F)F` [Example 27, 5-Difluoromethoxy-pyridine-2-carboxylic acid [3-((R)-2-amino-5,5-difluoro-4,6,6-trimethyl-5,6-dihydro-4H-[1,3]oxazin-4-yl)-4-fluoro-phenyl]-amide], the IC50 in experiment [1] was found to be 5350 nM; in experiment [2], 47 nM.
For `C[C@]1(c2cc(NC(=O)c3ncc(Cl)cn3)ccc2F)N=C(N)OCC1(F)F` [Example 12, 5-Chloro-pyrimidine-2-carboxylic acid [3-((R)-2-amino-5,5-difluoro-4-methyl-5,6-dihydro-4H-[1,3]oxazin-4-yl)-4-fluoro-phenyl]-amide] the same measures were 69 nM and 23 nM.
Taken in the same sequence, the figures for `C[C@]1(c2cc(NC(=O)c3ccc(OCC(F)F)cn3)ccc2F)N=C(N)OCC1(F)F` [Example 45, 5-(2,2-Difluoro-ethoxy)-pyridine-2-carboxylic acid [3-((R)-2-amino-5,5-difluoro-4-methyl-5,6-dihydro-4H-[1,3]oxazin-4-yl)-4-fluoro-phenyl]-amide] were 25700 nM and 400 nM.
Taken in the same sequence, the figures for `C[C@]1(c2cc(NC(=O)c3cnc(Cl)cn3)ccc2F)N=C(N)OCC1(F)F` [Example 47, 5-Chloro-pyrazine-2-carboxylic acid [3-((R)-2-amino-5,5-difluoro-4-methyl-5,6-dihydro-4H-[1,3]oxazin-4-yl)-4-fluoro-phenyl]-amide] were 34900 nM and 520 nM.
Consider `C[C@]1(c2cc(NC(=O)c3ncccc3F)ccc2F)N=C(N)OCC1(F)F` [Example 10, 3-Fluoro-pyridine-2-carboxylic acid [3-((R)-2-amino-5,5-difluoro-4-methyl-5,6-dihydro-4H-[1,3]oxazin-4-yl)-4-fluoro-phenyl]-amide], for which the figures for the IC50 in experiment [1] and in experiment [2] were 52 nM and 87 nM, respectively.
As to `C[C@]1(c2cc(NC(=O)c3ccc(C#N)cn3)cc(F)c2F)N=C(N)OCC1(F)F` [Example 49, 5-Cyano-pyridine-2-carboxylic acid [3-((R)-2-amino-5,5-difluoro-4-methyl-5,6-dihydro-4H-[1,3]oxazin-4-yl)-4,5-difluoro-phenyl]-amide], the IC50 in experiment [1] is 151 nM; in experiment [2], 26 nM.
